Experimental data taken from US20240317691A1, “Compounds for Modulating Epithelial 15-(S)-Lipoxygenase-2 and Methods of Use for Same” (The Regents of the University of California, priority 2021, published 2024).
Values joined by “and” are separate entries in the source; they are usually repeats but may differ in a detail not shown here. Equal entries are not always repeated. Where two headings read alike, the source gives them in different places.

Key:
h15-LOX-2 [1] = target: T1, h15-LOX-2 (Homo sapiens (Human), UniProt O15296); experiment: Lipoxygenase UV-Vis-based IC50 assay, h15-LOX-2; conditions: for inhibition at 20 µM: read-out: % Inhibition at 20 μM; for potency against h15-LOX-2, SAR statement: compared with original hits
T1 sequence (O15296 whole entry): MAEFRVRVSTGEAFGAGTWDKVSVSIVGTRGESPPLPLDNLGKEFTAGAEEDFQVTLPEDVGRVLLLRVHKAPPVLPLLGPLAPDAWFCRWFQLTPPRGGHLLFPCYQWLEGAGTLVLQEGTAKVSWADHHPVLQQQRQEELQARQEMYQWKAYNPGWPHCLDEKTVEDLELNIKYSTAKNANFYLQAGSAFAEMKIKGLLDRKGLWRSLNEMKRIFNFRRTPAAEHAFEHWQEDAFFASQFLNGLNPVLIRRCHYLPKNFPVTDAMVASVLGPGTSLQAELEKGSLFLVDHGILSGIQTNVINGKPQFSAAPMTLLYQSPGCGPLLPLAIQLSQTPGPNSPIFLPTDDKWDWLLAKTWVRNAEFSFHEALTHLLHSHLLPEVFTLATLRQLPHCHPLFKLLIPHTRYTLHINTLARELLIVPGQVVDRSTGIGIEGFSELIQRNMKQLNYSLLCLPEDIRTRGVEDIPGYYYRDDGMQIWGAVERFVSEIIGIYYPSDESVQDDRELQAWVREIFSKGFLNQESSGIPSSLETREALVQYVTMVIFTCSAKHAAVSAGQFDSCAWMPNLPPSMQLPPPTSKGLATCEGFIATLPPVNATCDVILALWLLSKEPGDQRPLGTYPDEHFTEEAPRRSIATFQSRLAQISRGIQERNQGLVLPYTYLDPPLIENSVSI
Method: (§3) The full IC50 experiments were done with at least five different inhibitor concentrations. All reaction mixtures were 2 mL in volume and constantly stirred using a magnetic stir bar at room temperature (23° C.) with the appropriate amount of LOX isozyme [h5-LOX (˜200 nM); h12-LOX (˜50 nM); h15-LOX-1 (˜60 nM); h15-LOX-2 (˜200 nM)]. […] Reactions with h12-LOX were carried out in 25 mM HEPES (pH 8.0) 0.01% Triton X-100 and 10 μM AA. Reactions with the crude, ammonium sulfate precipitated h5-LOX were carried out in 25 mM HEPES (pH 7.3), 0.3 mM CaCl2), 0.1 mM EDTA, 0.2 mM ATP, 0.01% Triton X100 and 10 μM AA. Reactions with h15-LOX-1 and h15-LOX-2 were carried out in 25 mM HEPES buffer (pH 7.5), 0.01% Triton X-100 and 10 μM AA. […] IC50 values were obtained by determining the percent inhibition at various inhibitor concentrations and plotting against inhibitor concentration, followed by a hyperbolic saturation curve fit. The percent inhibition was calculated by comparing the enzymatic rate of the control (DMSO) to the enzymatic rate with the respective inhibitor present. The experiments used for generating the saturation curves were performed in duplicate or triplicate, depending on the quality of the data.

h15-LOX-1 = h15-LOX-1 (Homo sapiens (Human), UniProt P16050); experiment: Lipoxygenase UV-Vis-based assay, h15-LOX-1 selectivity
Chain of h15-LOX-1 (P16050 whole entry, the tested form may be a part): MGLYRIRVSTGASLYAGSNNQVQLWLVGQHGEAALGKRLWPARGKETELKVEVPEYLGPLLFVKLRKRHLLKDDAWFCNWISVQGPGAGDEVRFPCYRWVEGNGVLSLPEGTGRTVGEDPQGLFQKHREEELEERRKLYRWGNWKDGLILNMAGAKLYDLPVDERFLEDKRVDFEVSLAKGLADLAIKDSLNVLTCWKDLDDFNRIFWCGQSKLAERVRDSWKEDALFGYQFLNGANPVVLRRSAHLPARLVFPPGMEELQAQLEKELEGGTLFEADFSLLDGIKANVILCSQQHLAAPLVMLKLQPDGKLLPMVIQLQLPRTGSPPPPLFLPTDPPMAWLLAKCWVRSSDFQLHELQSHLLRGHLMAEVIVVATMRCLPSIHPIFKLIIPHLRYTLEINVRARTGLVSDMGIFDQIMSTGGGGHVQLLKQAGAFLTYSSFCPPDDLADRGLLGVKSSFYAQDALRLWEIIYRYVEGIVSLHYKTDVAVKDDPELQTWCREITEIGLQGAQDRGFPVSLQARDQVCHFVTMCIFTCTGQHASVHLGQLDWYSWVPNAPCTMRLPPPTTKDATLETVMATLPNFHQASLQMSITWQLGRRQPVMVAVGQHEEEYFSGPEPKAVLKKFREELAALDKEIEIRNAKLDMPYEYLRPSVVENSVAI
Method: as §3

human recombinant COX-2 = human recombinant COX-2 (Homo sapiens (Human), UniProt P35354); experiment: Cyclooxygenase selectivity assay, COX-2; type: biochemical; conditions: estimated at 25 μM inhibitor concentration, 100 μM AA
Chain of human recombinant COX-2 (P35354 18-604): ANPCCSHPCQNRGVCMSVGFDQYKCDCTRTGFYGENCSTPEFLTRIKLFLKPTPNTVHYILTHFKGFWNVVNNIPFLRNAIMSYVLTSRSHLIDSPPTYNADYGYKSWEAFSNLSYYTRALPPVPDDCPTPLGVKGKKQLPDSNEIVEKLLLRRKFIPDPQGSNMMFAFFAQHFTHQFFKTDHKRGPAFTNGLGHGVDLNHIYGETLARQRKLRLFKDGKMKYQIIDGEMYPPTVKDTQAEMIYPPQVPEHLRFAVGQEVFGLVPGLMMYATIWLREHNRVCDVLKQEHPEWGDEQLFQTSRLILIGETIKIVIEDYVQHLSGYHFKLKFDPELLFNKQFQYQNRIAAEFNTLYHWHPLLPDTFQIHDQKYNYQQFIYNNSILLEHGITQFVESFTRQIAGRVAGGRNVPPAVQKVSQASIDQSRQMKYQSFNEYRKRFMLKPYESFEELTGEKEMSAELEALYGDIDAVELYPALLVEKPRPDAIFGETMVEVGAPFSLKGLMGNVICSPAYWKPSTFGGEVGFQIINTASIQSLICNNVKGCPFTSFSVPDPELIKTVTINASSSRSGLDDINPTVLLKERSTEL
Method: (§1) Cyclooxygenase selectivity assay was performed as previously described.^24 Approximately 3 μg of either ovine COX-1 (COX-1) or human recombinant COX-2 (COX-2) (Cayman Chemical) were added to buffer containing 0.1 M Tris-HCl buffer (pH 8.0), 5 mM EDTA, 2 mM phenol, and 1 μM hemin at 37° C. […] The reaction was then initiated by adding approximately 100 μM AA in the reaction cell, as indicated in the enzymatic protocol (Cayman Chemicals). A Hansatech DWI oxygen electrode was utilized for data collection and the consumption of oxygen was recorded.
(§2) Indomethacin and the vehicle of inhibitor (DMSO) were the positive and negative controls, respectively. The percent inhibition of the enzyme was calculated by comparing the rates of O2 consumption for experimental samples (with inhibitor) to the rates of control samples (with DMSO).

h5-LOX = h5-LOX (Homo sapiens (Human), UniProt P09917); experiment: Lipoxygenase UV-Vis-based assay, h5-LOX selectivity
Chain of h5-LOX (P09917 whole entry): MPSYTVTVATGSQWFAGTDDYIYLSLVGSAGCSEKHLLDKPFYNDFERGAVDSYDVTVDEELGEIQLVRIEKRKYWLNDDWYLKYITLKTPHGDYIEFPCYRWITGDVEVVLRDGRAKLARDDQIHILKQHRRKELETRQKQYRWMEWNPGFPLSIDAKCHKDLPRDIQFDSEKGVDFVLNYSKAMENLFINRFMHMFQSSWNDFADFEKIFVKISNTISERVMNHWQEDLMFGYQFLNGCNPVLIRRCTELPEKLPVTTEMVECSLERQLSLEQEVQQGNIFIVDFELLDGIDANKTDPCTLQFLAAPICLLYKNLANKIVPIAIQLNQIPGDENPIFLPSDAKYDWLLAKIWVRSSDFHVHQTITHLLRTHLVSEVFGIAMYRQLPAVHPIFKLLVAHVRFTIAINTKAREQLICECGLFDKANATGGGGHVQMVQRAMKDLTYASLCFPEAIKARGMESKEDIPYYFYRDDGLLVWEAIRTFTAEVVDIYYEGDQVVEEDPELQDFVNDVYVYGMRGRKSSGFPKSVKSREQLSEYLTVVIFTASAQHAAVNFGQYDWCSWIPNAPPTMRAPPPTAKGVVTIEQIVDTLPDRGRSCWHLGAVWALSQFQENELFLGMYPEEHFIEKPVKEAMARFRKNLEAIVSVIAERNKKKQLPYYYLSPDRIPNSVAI
Method: as §3

[2] = target: h15-LOX-2 expressed in HEK293T cells (Homo sapiens (Human), UniProt O15296); experiment: Inhibition of h15-LOX-2 in HEK293T cells (15-HETE production); type: cell-based; conditions: h15-LOX-2/HEK293T cells, exogenous AA, triplicate
Chain of h15-LOX-2 expressed in HEK293T cells (O15296 whole entry, the tested form may be a part): as the sequence (O15296 whole entry) above
Method: HEK293T cells over-expressing h15-LOX-2 were grown in MEM (Gibco) with 10% FBS (Gibco), 2 mM glutamine (Sigma), 100U/mL of penicillin/streptomycin (Gibco) and 640 μg/ml G418 sulfate (Fisher) as a selection agent. Cells were harvested at 90% confluence with trypsin-EDTA (Gibco) and washed once with MEM with 10% FBS. Cells were then washed with 0.1% glucose (Fisher) in PBS (Gibco). Cells were then diluted in 0.1% glucose in PBS to a concentration of 1 million cells/mL. Cells were treated with DMSO (0.2%) or inhibitor in DMSO and incubated at 37° C. for 20 min. Cells were then stimulated with 100 uM CaCl2) (Sigma), 5 μM Ca Ionophore A23187 (Sigma), and 1 μM arachidonic acid (NuCheck) for 10 min at 37° C. Cells were then acidified to 40 uM HCl and snap-frozen in liquid nitrogen.

h15-LOX-2 [3] = target: T1, h15-LOX-2; experiment: Inhibitors as substrates of h15-LOX-2 (UV-Vis and RP-HPLC); type: biochemical; conditions: 20 μM inhibitor, absence of AA
Method: All buffer conditions and the determination of each rate are identical to the UV-Vis assay as described above. 20 μM of each inhibitor was reacted with h15-LOX-2 in 2 mL reaction mixtures in the absence of AA. Controls included DMSO (vehicle), 10 μM AA, and enzyme. All reactions were conducted on a Perkin Elmer Lambda 40 UV/Vis spectrophotometer. […] Each reaction mixture was subsequently extracted and analyzed via RP-HPLC using a Higgins HAIsiL analytical column. […] Retention times and absorbance spectra of each of the reactions were compared to spectra of the controls.

h15-LOX-2 [4] = target: T1, h15-LOX-2; experiment: Steady-state inhibition kinetics of h15-LOX-2; type: biochemical
Method: Reactions were initiated by adding h15-LOX-2 to a constantly stirring 2 mL reaction mixture containing 0.7 μM-20 μM AA in 25 mM HEPES buffer (pH 7.5), in the presence of 0.01% Triton X-100. Kinetic data were obtained by recording initial enzymatic rates, at varied inhibitor concentrations, and subsequently fitting the data to the Henri-Michaelis-Menten equation using KaleidaGraph (Synergy) to determine Vmax (μmol/min) and Km (μM). The primary data were then plotted in Dixon format using Microsoft Excel by graphing 1/v vs. [I] μM at the chosen substrate concentrations. From the Dixon plots, the slope at each substrate concentration was extracted and plotted against 1/[S] μM to produce the Dixon replots. The Kic equilibrium constant of dissociation was calculated by dividing Km/Vmax by the slope of the replot. To obtain Kiu, 1/Vmax was divided by the y-intercept of the replot. Kic and Kiu are defined as the equilibrium constant of dissociation from the catalytic and secondary sites, respectively.

h12-LOX = h12-LOX (Homo sapiens (Human), UniProt P18054); experiment: Lipoxygenase UV-Vis-based assay, h12-LOX selectivity
Chain of h12-LOX (P18054 whole entry, the tested form may be a part): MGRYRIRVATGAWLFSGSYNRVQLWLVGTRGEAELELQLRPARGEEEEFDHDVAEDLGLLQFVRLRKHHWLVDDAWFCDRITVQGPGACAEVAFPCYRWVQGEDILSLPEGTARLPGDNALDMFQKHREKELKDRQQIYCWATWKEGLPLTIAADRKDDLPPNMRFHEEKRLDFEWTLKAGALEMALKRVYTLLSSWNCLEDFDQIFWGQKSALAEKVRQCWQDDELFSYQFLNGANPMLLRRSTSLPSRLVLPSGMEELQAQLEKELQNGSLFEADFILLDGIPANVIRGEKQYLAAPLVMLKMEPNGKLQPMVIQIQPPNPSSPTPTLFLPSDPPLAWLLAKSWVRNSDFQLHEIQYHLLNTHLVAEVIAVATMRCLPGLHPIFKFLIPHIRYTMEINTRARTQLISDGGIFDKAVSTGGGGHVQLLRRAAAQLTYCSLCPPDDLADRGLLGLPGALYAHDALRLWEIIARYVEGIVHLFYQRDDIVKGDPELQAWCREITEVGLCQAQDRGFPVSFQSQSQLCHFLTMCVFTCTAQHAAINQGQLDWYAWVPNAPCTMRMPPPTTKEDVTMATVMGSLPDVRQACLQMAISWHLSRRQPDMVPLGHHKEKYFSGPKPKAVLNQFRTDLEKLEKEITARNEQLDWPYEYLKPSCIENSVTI
Method: as §3

ovine COX-1 = ovine COX-1 (Ovis aries (Sheep), UniProt P05979); experiment: Cyclooxygenase selectivity assay, COX-1; type: biochemical; conditions: estimated at 25 μM inhibitor concentration, 100 μM AA
Chain of ovine COX-1 (P05979 25-600): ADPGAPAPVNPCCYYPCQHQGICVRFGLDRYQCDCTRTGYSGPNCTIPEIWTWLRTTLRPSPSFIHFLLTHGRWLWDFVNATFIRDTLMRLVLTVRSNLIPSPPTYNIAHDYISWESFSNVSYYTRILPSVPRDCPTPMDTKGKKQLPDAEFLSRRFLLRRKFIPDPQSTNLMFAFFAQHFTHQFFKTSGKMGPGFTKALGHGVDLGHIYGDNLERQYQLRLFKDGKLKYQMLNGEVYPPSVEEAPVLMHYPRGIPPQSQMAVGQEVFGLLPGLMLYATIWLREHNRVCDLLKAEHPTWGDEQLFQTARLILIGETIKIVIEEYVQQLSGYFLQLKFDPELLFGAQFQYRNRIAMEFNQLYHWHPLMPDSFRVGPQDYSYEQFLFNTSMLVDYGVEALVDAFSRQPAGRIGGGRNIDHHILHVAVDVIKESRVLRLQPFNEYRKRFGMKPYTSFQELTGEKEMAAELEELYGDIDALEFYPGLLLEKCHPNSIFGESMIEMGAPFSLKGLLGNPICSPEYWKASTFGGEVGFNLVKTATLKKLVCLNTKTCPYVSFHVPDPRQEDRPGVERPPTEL
Method: as §1, §2

h15-LOX-2 [5] = target: T1, h15-LOX-2; experiment: Pseudo-peroxidase activity assay (redox); type: biochemical; conditions: 20 μM inhibitor, degradation of 13-HpODE at 234 nm; more than 25% degradation indicates redox activity
Method: 13-HpODE was used as the oxidant and BWb70c as the positive control. […] The reaction mixtures were constantly stirred at 23° C. […] The negative controls used were: enzyme alone with the product, enzyme alone with inhibitor, as well as inhibitor alone with the product. These formed a baseline for the assay, reflecting non-pseudo-peroxidase dependent hydroperoxide product decomposition. To rule out the auto-inactivation of the enzyme from pseudo-peroxidase cycling, the h15-LOX-2 residual activity was determined by the addition of 20 μM AA at the end of each reaction.

h15-LOX-2 [6] = target: T1, h15-LOX-2; experiment: Hydrogen/deuterium exchange mass spectrometry of h15-LOX-2; conditions: 20 μM inhibitor
Method: Samples were incubated randomly at 10 time points (0, 10, 20, 45, 60, 180, 600, 1800, 3600, and 7200 s) at 25° C. using a water bath. For each given temperature and mutant, the time points (samples) were collected over the course of three to four days and randomized to reduce systematic error. Each sample (from a unique time point) was prepared and processed once. For the samples containing inhibitors, the inhibitor was added (20 μM final concentration) to the protein stock solution (at least one minute) prior to D2O addition. The specific inhibitor was also added to the D2O buffer at a final concentration of 20 μM prior to the exchange experiment.
Procedures from this point were conducted near 4° C. Prior to pepsin digestion, guanidine HCl (in citric acid, pH 2.4) was mixed with the samples to a final concentration of ca. 0.5 M. This solution contained DTT to the final concentration of 5 mM. […]
Deuterated, pepsin-digested samples of 15-LOX-2 were analyzed using an Agilent 1200 LC (Santa Clara, CA) that was connected in-line with the LTQ Orbitrap XL mass spectrometer (Thermo). Mass spectral data acquired for HDX measurements were analyzed using the software, HDX WorkBench. The percent deuterium incorporation was calculated for each of these peptides, taking into account the number of amide linkages (excluding proline residues) and the calculated number of deuterons incorporated. […]

[7] = read-out: IC50 (μM) (± SD), h15-LOX-2 SAR study, 10 μM AA, 0.01% TritonX-100
[8] = read-out: IC50 (μM) (± SD (μM)), h15-LOX-2, 10 μM AA, duplicate
[9] = read-out: h15-LOX-2 IC50, experimental values repeated in docking table
[10] = read-out: h15-LOX-2 IC50, full IC50 experiment, 10 μM AA, duplicate
[11] = equilibrium constant of dissociation from the catalytic site, Dixon replot, 0.01% Triton X-100, read-out: Kic

| SMILES | inhibition at 20 µM (h15-LOX-2 [1]) | IC50 (h15-LOX-2 [1]; [7]) | also measured |
| --- | --- | --- | --- |
| Brc1ccc(CSc2nccn2-c2ccccc2)cc1 [Compound 106] |  |  | IC50 (h15-LOX-1): > 50 µM; IC50 (human recombinant COX-2): > 100 µM; IC50 (h5-LOX): > 100 µM; IC50 (h12-LOX): > 100 µM; IC50 (ovine COX-1): > 100 µM |
| O=C(CSc1nccn1-c1ccccc1)NO [Compound 111] | 4% | > 100 µM |  |
| O=C(O)CCCSc1nccn1-c1ccccc1 [Compound 112] | 8% | > 100 µM |  |
| Cc1cc(C)cc(NC(=O)CSc2nccn2-c2ccccc2)c1 [Compound 116] | 0% | > 100 µM |  |
| O=C(CSc1nccn1-c1ccccc1)NCc1ccc(F)cc1 [Compound 117] | 8% | > 100 µM |  |
| Cc1ccc(C)c(-n2ccnc2SCC(=O)O)c1 [Compound 119] | 4% | > 100 µM |  |
| Cc1cc(C)cc(-n2ccnc2SCC(=O)O)c1 [Compound 120] | 7% | > 100 µM |  |
| Cc1cccc(-n2ccnc2SCC(=O)O)c1C [Compound 121] | 7% | > 100 µM |  |
| Cc1ccccc1-n1ccnc1SCC(=O)O [Compound 122] | 8% | > 100 µM |  |
| CC(C)c1ccc(-n2ccnc2SCC(=O)O)cc1 [Compound 123] | 13% | > 100 µM |  |
| Cc1ccc(-n2ccnc2SCC(=O)O)cc1C [Compound 124] | 14% | > 100 µM |  |
| Cc1cccc(-n2ccnc2SCC(=O)Nc2ccccc2C(F)(F)F)c1 [Compound 126] | 4% | > 100 µM |  |
| Cc1cccc(-n2ccnc2SCC(=O)Nc2cc(C(F)(F)F)ccc2Cl)c1 [Compound 127] | 13% | > 100 µM |  |

Second part, led by results:

| inhibition at 20 µM (h15-LOX-2 [1]) | IC50 (h15-LOX-2 [1]; [7]) | SMILES | also measured |
| --- | --- | --- | --- |
| 97% | 0.27 µM | Cc1ccc(-n2ccnc2SCc2ccc(C(F)(F)F)cc2)cc1 [Compound 101, 1-(p-tolyl)-2-((4-(trifluoromethyl)benzyl)thio)-1H-imidazole] |  |
| 35% | > 100 µM | Fc1ccc(CSc2nccn2-c2ccccc2)cc1 [Compound 102, 2-((4-fluorobenzyl)thio)-1-phenyl-1H-imidazole] | IC50 (h15-LOX-2 [1]; [8]): > 100 µM |
| 84% | 2.3 µM | CSc1ccc(CSc2nccn2-c2ccccc2)cc1 [Compound 103, 2-((4-(methylthio)benzyl)thio)-1-phenyl-1H-imidazole] | IC50 (h15-LOX-2 [1]; [8]): 2.3 µM |
| 23% | > 100 µM | N#Cc1cc(CSc2nccn2-c2ccccc2)ccc1F [Compound 104, 2-fluoro-5-(((1-phenyl-1H-imidazol-2-yl)thio)methyl)benzonitrile] | potency against h15-LOX-2, SAR statement (h15-LOX-2 [1]): drastically decreased the potency |
| 100% | 0.34 µM | FC(F)(F)c1ccc(CSc2nccn2-c2ccccc2)cc1 [Compound 105] | IC50 (h15-LOX-1): > 50 µM; IC50 (human recombinant COX-2): > 100 µM; IC50 (h5-LOX): > 100 µM; EC50 [2]: ~1 µM and 0.75 µM; enhanced inhibition over inhibitor 536924 (h15-LOX-2 [1]; ratio of h15-LOX-2 IC50 values): ~10 fold; IC50 (h15-LOX-2 [1]; [8]): 0.34 µM; IC50 (h15-LOX-2 [1]; [9]): 0.34 µM; IC50 (h15-LOX-2 [1]; [10]): 0.34 µM; substrate activity with h15-LOX-2 (h15-LOX-2 [3]): not substrates; Ki (h15-LOX-2 [4]; Dixon replot of slope versus [Inhibitor], unit given as M, read-out: Kic (FIG. 2 legend)): 0.8 µM; Ki (h15-LOX-2 [4]; [11]): 0.7 µM; IC50 (h12-LOX): > 100 µM; IC50 (ovine COX-1): > 100 µM; Redox (h15-LOX-2 [5]): No; average HDX rate constants of peptides 173-184 and 184-191 in presence of inhibitor (h15-LOX-2 [6]; bi-exponential fits): 2—and 4-times slower; reduction in exchange of h15-LOX-2 peptides 173-184 and 184-191 (h15-LOX-2 [6]; short time scales (<10 min), 25° C.): ≤ 20% |
| 98% | 0.87 µM | CCc1ccc(CSc2nccn2-c2ccccc2)cc1 [Compound 107] | IC50 (h15-LOX-1): > 50 µM; IC50 (human recombinant COX-2): > 100 µM; IC50 (h5-LOX): > 100 µM; EC50 [2]: ~1 µM and 1.3 µM; IC50 (h15-LOX-2 [1]; [8]): 0.87 µM; IC50 (h15-LOX-2 [1]; [9]): 0.87 µM; IC50 (h15-LOX-2 [1]; [10]): 0.87 µM; substrate activity with h15-LOX-2 (h15-LOX-2 [3]): not substrates; Ki (h15-LOX-2 [4]; [11]): 0.9 µM; Ki (h15-LOX-2 [4]; equilibrium constant of dissociation from the secondary site, Dixon replot, 0.01% Triton X-100, read-out: Kiu): 3.4 µM; IC50 (h12-LOX): > 100 µM; IC50 (ovine COX-1): > 100 µM; Redox (h15-LOX-2 [5]): No |
| 31% | > 50 µM | Cc1ccccc1CSc1nccn1-c1ccccc1 [Compound 108] | potency against h15-LOX-2, SAR statement (h15-LOX-2 [1]): drastically decreased the potency |
| 39% | > 50 µM | Clc1cccc(CSc2nccn2-c2ccccc2)c1 [Compound 109] | potency against h15-LOX-2, SAR statement (h15-LOX-2 [1]): drastically decreased the potency |
| 68% | > 25 µM | c1ccc(CCSc2nccn2-c2ccccc2)cc1 [Compound 110] | potency against h15-LOX-2, SAR statement (h15-LOX-2 [1]): drastically decreased the potency |
| 56% | > 25 µM | Cc1ccc(C(=O)CSc2nccn2-c2ccccc2)cc1 [Compound 113] |  |
| 62% | > 25 µM | O=C(CSc1nccn1-c1ccccc1)c1ccc(Cl)cc1 [Compound 114] |  |
| 51% | > 25 µM | O=C(CSc1nccn1-c1ccccc1)c1ccc(Br)cc1 [Compound 115] |  |
| 18% | > 50 µM | Cc1ccc(NC(=O)CSc2nccn2-c2ccccc2)cc1 [Compound 118] |  |
| 16% | > 50 µM | Cc1ccc(-n2ccnc2SCC(=O)O)c(C)c1 [Compound 125] |  |
